Results on 31 compounds are retold here after patent US9540366B2, “Ring-fused heterocyclic compound” (Kyowa Hakko Kirin Co., Ltd., priority 2012, dated 2017).

One may read the IC50 as the concentration at which inhibition is half-maximal.

In the first assay the target is T1, human Cav3.2 T-type Ca2+ channel (Homo sapiens, UniProt O95180).
T1 construct: expressed in transfected cells; host or cells: KJMGER8 cells (Namalwa cell-derived cell line)
T1 sequence (O95180 whole entry): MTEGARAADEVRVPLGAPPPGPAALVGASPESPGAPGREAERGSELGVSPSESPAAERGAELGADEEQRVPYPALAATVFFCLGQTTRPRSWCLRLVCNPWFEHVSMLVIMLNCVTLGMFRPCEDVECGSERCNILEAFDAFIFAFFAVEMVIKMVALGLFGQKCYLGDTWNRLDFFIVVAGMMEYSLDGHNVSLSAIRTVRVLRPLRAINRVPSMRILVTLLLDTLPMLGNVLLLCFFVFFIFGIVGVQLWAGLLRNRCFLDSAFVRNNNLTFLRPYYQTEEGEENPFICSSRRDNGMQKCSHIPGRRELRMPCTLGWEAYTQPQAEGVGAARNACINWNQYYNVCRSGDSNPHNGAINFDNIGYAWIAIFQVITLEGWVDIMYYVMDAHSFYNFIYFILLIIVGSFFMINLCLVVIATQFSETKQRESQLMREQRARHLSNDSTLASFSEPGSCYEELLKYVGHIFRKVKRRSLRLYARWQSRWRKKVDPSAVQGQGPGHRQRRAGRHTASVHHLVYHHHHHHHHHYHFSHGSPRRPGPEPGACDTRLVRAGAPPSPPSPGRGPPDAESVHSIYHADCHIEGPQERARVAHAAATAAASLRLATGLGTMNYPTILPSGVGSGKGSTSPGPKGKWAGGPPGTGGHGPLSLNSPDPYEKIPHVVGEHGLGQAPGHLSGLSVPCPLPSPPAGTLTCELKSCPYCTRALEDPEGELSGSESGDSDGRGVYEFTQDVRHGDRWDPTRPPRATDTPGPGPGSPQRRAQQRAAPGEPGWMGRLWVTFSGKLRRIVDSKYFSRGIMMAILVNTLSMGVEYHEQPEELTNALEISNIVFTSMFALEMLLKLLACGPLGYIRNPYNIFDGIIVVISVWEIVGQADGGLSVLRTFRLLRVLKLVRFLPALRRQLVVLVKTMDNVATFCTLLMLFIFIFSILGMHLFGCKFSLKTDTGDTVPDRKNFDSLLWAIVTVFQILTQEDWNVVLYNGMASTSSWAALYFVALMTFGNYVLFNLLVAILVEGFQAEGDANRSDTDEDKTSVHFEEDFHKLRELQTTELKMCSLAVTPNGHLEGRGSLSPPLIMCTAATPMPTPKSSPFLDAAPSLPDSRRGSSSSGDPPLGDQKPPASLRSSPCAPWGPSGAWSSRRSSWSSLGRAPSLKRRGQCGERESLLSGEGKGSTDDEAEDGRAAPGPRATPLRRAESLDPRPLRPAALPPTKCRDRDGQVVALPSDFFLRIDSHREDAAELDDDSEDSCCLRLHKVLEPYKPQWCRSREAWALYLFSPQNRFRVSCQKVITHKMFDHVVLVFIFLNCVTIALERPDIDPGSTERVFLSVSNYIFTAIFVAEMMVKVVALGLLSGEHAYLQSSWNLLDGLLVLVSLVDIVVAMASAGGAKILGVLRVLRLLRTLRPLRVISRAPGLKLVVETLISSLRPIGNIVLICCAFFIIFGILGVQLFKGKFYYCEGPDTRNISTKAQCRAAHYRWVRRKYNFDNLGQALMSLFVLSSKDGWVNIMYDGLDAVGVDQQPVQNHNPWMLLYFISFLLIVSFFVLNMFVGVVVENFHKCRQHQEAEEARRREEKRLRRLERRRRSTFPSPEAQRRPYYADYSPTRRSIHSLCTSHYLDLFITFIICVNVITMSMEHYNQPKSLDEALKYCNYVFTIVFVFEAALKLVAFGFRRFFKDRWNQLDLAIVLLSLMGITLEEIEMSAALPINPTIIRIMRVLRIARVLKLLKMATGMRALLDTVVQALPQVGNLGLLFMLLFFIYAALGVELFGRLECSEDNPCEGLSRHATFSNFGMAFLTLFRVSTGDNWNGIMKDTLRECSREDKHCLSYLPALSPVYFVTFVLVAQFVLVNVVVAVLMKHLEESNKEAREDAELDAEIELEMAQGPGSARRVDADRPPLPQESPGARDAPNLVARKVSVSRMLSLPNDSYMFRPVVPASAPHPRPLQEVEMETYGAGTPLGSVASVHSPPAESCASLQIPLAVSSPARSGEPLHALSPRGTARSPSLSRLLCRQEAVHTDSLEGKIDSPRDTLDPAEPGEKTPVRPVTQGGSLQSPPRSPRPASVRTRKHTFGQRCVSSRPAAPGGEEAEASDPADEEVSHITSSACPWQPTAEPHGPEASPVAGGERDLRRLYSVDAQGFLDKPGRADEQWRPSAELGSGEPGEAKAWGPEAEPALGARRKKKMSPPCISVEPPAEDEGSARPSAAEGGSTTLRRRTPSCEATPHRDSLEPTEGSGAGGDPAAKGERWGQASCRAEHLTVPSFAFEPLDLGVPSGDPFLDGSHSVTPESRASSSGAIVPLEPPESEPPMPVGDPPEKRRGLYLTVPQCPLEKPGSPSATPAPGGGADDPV
Kind of assay: Inhibitory effect for intracellular calcium response via Cav3.2 T-type Ca2+ channels (FLIPR Calcium 3 Assay Kit). The class given is cell-based.
Conditions: not given
For orientation: A change in cytosolic calcium serves as a functional read-out for many receptors and channels.
For `N#Cc1cc(C(=O)Nc2ccccc2N)cc2nc(C(F)(F)F)c(CC3CCC(F)(F)CC3)n12` [Compound 52, N-(2-Aminophenyl)-5-cyano-3-[(4,4-difluorocyclohexyl)methyl]-2-(trifluoromethyl)imidazo[1,2-a]pyridine-7-carboxamide], the IC50 is not above 100 nM.

Regarding `N#Cc1cc(C(=O)NC2CCC2)cc2nc(C(F)(F)F)c(CC3CCC(F)(F)CC3)n12` [Compound 54, 5-Cyano-N-cyclobutyl-3-[(4,4-difluorocyclohexyl)methyl]-2-(trifluoromethyl)imidazo[1,2-a]pyridine-7-carboxamide], the IC50 is not above 100 nM.

In the case of `N#Cc1cc(C(=O)N[C@H]2CC[C@H](O)CC2)cc2nc(C(F)(F)F)c(CC3CCC(F)(F)CC3)n12` [Compound 56, 5-Cyano-3-[(4,4-difluorocyclohexyl)methyl]-N-[(1R,4R)-4-hydroxycyclohexyl]-2-(trifluoromethyl)imidazo[1,2-a]pyridine-7-carboxamide], the IC50 is not above 100 nM.

As to `CC1(C)CC(NC(=O)c2cc(C#N)n3c(CC4CCC(F)(F)CC4)c(C(F)(F)F)nc3c2)CCO1` (stereo not shown) [Compound 57, 5-Cyano-3-[(4,4-difluorocyclohexyl)methyl]-N-(2,2-dimethyltetrahydro-2H-pyran-4-yl)-2-(trifluoromethyl)imidazo[1,2-a]pyridine-7-carboxamide], the IC50 was not above 100 nM.

`N#Cc1cc(C(=O)NC2(CO)CCOCC2)cc2nc(C(F)(F)F)c(CC3CCC(F)(F)CC3)n12` [Compound 58, 5-Cyano-3-[(4,4-difluorocyclohexyl)methyl]-N-[4-(hydroxymethyl)tetrahydro-2H-pyran-4-yl]-2-(trifluoromethyl)imidazo[1,2-a]pyridine-7-carboxamide]: the IC50 is not above 100 nM.

As to `N#Cc1cc(C(=O)NC2CCOC2)cc2nc(C(F)(F)F)c(CC3CCC(F)(F)CC3)n12` (stereo not shown) [Compound 62], the IC50 is not above 100 nM.

For the compound `CC(C)(NC(=O)c1cc(C#N)n2c(CC3CCC(F)(F)CC3)c(C(F)(F)F)nc2c1)C1CCOCC1` [Compound 63, 5-Cyano-3-[(4,4-difluorocyclohexyl)methyl]-N-[2-(tetrahydro-2H-pyran-4-yl)propan-2-yl]-2-(trifluoromethyl)imidazo[1,2-a]pyridine-7-carboxamide], the half-inhibitory concentration (IC50) was not above 100 nM.

Regarding `N#Cc1cc(C(=O)NOC2CCOCC2)cc2nc(C(F)(F)F)c(CC3CCC(F)(F)CC3)n12` [Compound 65], the IC50 was not above 100 nM.

As for `N#Cc1cc(C(=O)NC2(C3CCOCC3)CC2)cc2nc(C(F)(F)F)c(CC3CCC(F)(F)CC3)n12` [Compound 66, 5-Cyano-3-[(4,4-difluorocyclohexyl)methyl]-N-[1-(tetrahydro-2H-pyran-4-yl)cyclopropyl]-2-(trifluoromethyl)imidazo[1,2-a]pyridine-7-carboxamide], the IC50 was not above 100 nM.

Regarding `N#Cc1cc(C(=O)NCC(=O)c2ccccc2)cc2nc(C(F)(F)F)c(CC3CCC(F)(F)CC3)n12` [Compound 67, 5-Cyano-3-[(4,4-difluorocyclohexyl)methyl]-N-(2-oxo-2-phenylethyl)-2-(trifluoromethyl)imidazo[1,2-a]pyridine-7-carboxamide], the IC50 is not above 100 nM.

For `N#Cc1cc(C(=O)NCC2(O)CC2)cc2nc(C(F)(F)F)c(CC3CCC(F)(F)CC3)n12` [Compound 69, 5-Cyano-3-[(4,4-difluorocyclohexyl)methyl]-N-[(1-hydroxycyclopropyl)methyl]-2-(trifluoromethyl)imidazo[1,2-a]pyridine-7-carboxamide], the IC50 is not above 100 nM.

Take `Cc1cc(C(=O)NOC2CCOCC2)cc2nc(C(F)(F)F)c(CC3CCC(F)(F)CC3)n12` [Compound 72, 3-[(4,4-Difluorocyclohexyl)methyl]-5-methyl-N-(tetrahydro-2H-pyran-4-yloxy)-2-(trifluoromethyl)imidazo[1,2-a]pyridine-7-carboxamide]: the IC50 is not above 100 nM.

For `Cc1cc(-c2nc3c([nH]2)CCCC3)cc2nc(C(F)(F)F)c(CC3CCC(F)(F)CC3)n12` [Compound 73, 2-{3-[(4,4-Difluorocyclohexyl)methyl]-5-methyl-2-(trifluoromethyl)imidazo[1,2-a]pyridin-7-yl}-4,5,6,7-tetrahydro-1H-benzo[d]imidazol], the IC50 was not above 100 nM.

As for `Cc1cc(C(=O)NC2CCCOCC2)cc2nc(C(F)(F)F)c(CC3CCC(F)(F)CC3)n12` (stereo not shown) [Compound 74, 3-[(4,4-Difluorocyclohexyl)methyl]-5-methyl-N-(oxepan-4-yl)-2-(trifluoromethyl)imidazo[1,2-a]pyridine-7-carboxamide], the IC50 is not above 100 nM.

With `N#Cc1cc(C(=O)NC2CC2)cc2nc(C(F)(F)F)c(CC3CCC(F)(F)CC3)n12` [Compound 76, 5-Cyano-N-cyclopropyl-3-[(4,4-difluorocyclohexyl)methyl]-2-(trifluoromethyl)imidazo[1,2-a]pyridine-7-carboxamide], the IC50 was not above 100 nM.

With `O=C(NCC1CC1)c1cc(Cl)n2c(CC3CCC(F)(F)CC3)c(C(F)(F)F)nc2c1` [Compound 77, 5-Chloro-N-(cyclopropylmethyl)-3-[(4,4-difluorocyclohexyl)methyl]-2-(trifluoromethyl)imidazo[1,2-a]pyridine-7-carboxamide], the IC50 was not above 100 nM.

`Cc1cc(CC(=O)NC2CCOCC2)cc2nc(C(F)(F)F)c(CC3CCC(F)(F)CC3)n12` [Compound 78, 2-{3-[(4,4-Difluorocyclohexyl)methyl]-5-methyl-2-(trifluoromethyl)imidazo[1,2-a]pyridin-7-yl}-N-(tetrahydro-2H-pyran-4-yl)acetamide]: the IC50 was not above 100 nM.

On to `Cc1cc(C(=O)NC2CC(CO)(CO)C2)cc2nc(C(F)(F)F)c(CC3CCC(F)(F)CC3)n12` [Compound 80, N-[3,3-Bis(hydroxymethyl)cyclobutyl]-3-[(4,4-difluorocyclohexyl)methyl]-5-methyl-2-(trifluoromethyl)imidazo[1,2-a]pyridine-7-carboxamide], for which the IC50 is not above 100 nM.

`CC(C)(NC(=O)c1cc(Cl)n2c(CC3CCC(F)(F)CC3)c(C(F)(F)F)nc2c1)C1CCOCC1` [Compound 81, 5-Chloro-3-[(4,4-difluorocyclohexyl)methyl]-N-[2-(tetrahydro-2H-pyran-4-yl)propan-2-yl]-2-(trifluoromethyl)imidazo[1,2-a]pyridine-7-carboxamide]: the IC50 was not above 100 nM.

`Cc1cc(C(O)C(O)C2CCOCC2)cc2nc(C(F)(F)F)c(CC3CCC(F)(F)CC3)n12` (stereo not shown) [Compound 82, 1-{3-[(4,4-Difluorocyclohexyl)methyl]-5-methyl-2-(trifluoromethyl)imidazo[1,2-a]pyridin-7-yl}-2-(tetrahydro-2H-pyran-4-yl)ethane-1,2-diol]: the IC50 is not above 100 nM.

Take `Cc1cc(CC(=O)NOC2CCOCC2)cc2nc(C(F)(F)F)c(CC3CCC(F)(F)CC3)n12` [Compound 84, 2-{3-[(4,4-Difluorocyclohexyl)methyl]-5-methyl-2-(trifluoromethyl)imidazo[1,2-a]pyridin-7-yl}-N-(tetrahydro-2H-pyran-4-yloxy)acetamide]: the IC50 is not above 100 nM.

For `O=C(NCC1(O)CCOCC1)c1cc(Cl)n2c(CC3CCC(F)(F)CC3)c(C(F)(F)F)nc2c1` [Compound 86, 5-Chloro-3-[(4,4-difluorocyclohexyl)methyl]-N-[(4-hydroxytetrahydro-2H-pyran-4-yl)methyl]-2-(trifluoromethyl)imidazo[1,2-a]pyridine-7-carboxamide], the IC50 was not above 100 nM.

As to `Cc1cc(C(=O)NC2CC3(COC3)C2)cc2nc(C(F)(F)F)c(CC3CCC(F)(F)CC3)n12` [Compound 88, 3-[(4,4-Difluorocyclohexyl)methyl]-5-methyl-N-(2-oxaspiro[3.3]heptan-6-yl)-2-(trifluoromethyl)imidazo[1,2-a]pyridine-7-carboxamide], the IC50 was not above 100 nM.

Staying with this assay, now noted: human Cav3.2-expressing KJMGER8 cells (Namalwa-derived); calcium response induced by 5 mmol/L CaCl2; 3 μmol/L mibefradil as reference; read-out: IC50 for the human Cav3.2 T-type Ca2+ current.
As to `N#Cc1cc(C(=O)NCC2COCCO2)cc2nc(C(F)(F)F)c(CC3CCC(F)(F)CC3)n12` (stereo not shown) [Compound 59, N-[(1,4-Dioxan-2-yl)methyl]-5-cyano-3-[(4,4-difluorocyclohexyl)methyl]-2-(trifluoromethyl)imidazo[1,2-a]pyridine-7-carboxamide], the IC50 is not above 100 nM.

Turning to `N#Cc1cc(C(=O)NC2COC2)cc2nc(C(F)(F)F)c(CC3CCC(F)(F)CC3)n12` [Compound 60], the IC50 is not above 100 nM.

Turning to `N#Cc1cc(C(=O)NC2CCCOC2)cc2nc(C(F)(F)F)c(CC3CCC(F)(F)CC3)n12` (stereo not shown) [Compound 64], the IC50 is not above 100 nM.

For the compound `N#Cc1cc(C(=O)NC2CCC3(CC2)COC3)cc2nc(C(F)(F)F)c(CC3CCC(F)(F)CC3)n12` [Compound 70, 5-Cyano-3-[(4,4-difluorocyclohexyl)methyl]-N-(2-oxaspiro[3.5]nonan-7-yl)-2-(trifluoromethyl)imidazo[1,2-a]pyridine-7-carboxamide], the IC50 is not above 100 nM.

In the case of `Cc1cc(C(=O)NC2(C3CCOCC3)CC2)cc2nc(C(F)(F)F)c(CC3CCC(F)(F)CC3)n12` [Compound 75, 3-[(4,4-Difluorocyclohexyl)methyl]-5-methyl-N-[1-(tetrahydro-2H-pyran-4-yl)cyclopropyl]-2-(trifluoromethyl)imidazo[1,2-a]pyridine-7-carboxamide], the IC50 was not above 100 nM.

In the case of `Cc1cc(C(=O)C(O)C2CCOCC2)cc2nc(C(F)(F)F)c(CC3CCC(F)(F)CC3)n12` (stereo not shown) [Compound 83, 1-{3-[(4,4-Difluorocyclohexyl)methyl]-5-methyl-2-(trifluoromethyl)imidazo[1,2-a]pyridin-7-yl}-2-hydroxy-2-(tetrahydro-2H-pyran-4-yl)ethanone], the IC50 is not above 100 nM.

For `Cc1cc(CC(=O)Nc2ccccc2N)cc2nc(C(F)(F)F)c(CC3CCC(F)(F)CC3)n12` [Compound 85, N-(2-Aminophenyl)-2-{3-[(4,4-difluorocyclohexyl)methyl]-5-methyl-2-(trifluoromethyl)imidazo[1,2-a]pyridin-7-yl}acetamide], the IC50 was not above 100 nM.

`Cc1cc(Cc2nc3ccccc3[nH]2)cc2nc(C(F)(F)F)c(CC3CCC(F)(F)CC3)n12` [Compound 87, 2-({3-[(4,4-Difluorocyclohexyl)methyl]-5-methyl-2-(trifluoromethyl)imidazo[1,2-a]pyridin-7-yl}methyl)-1H-benzo[d]imidazol]: the IC50 is not above 100 nM.
